Results: patent publication US11236089B2, “Substituted pyrrolopyridines as ATR inhibitors” (BlueValley Pharmaceutical LLC, priority 2017, dated 2022)

How the values were obtained:
[1] = test system: ATM-Deficient Colorectal Cancer LoVo Cell Lines; test: In vitro anti-proliferation assay (ATPlite luminescence); format: cell-based; conditions: Homo sapiens; LoVo cells; about 72 hours; 5% FBS
Protocol: Cell antiproliferation was assayed by PerkinElmer ATPlite™ Luminescence Assay System. Briefly, the various test cancer cell lines were plated at a density of about 1×10^4 cells per well in Costar 96-well plates, and were incubated with different concentrations of compounds for about 72 hours in medium supplemented with 5% FBS. One lyophilized substrate solution vial was then reconstituted by adding 5 mL of substrate buffer solution, and was agitated gently until the solution was homogeneous. About 50 μL of mammalian cell lysis solution was added to 100 μL of cell suspension per well of a microplate, and the plate was shaken for about five minutes in an orbital shaker at ˜700 rpm. This procedure was used to lyse the cells and to stabilize the ATP. Next, 50 μL substrate solution was added to the wells and microplate was shaken for five minutes in an orbital shaker at ˜700 rpm. Finally, the luminescence was measured by a PerkinElmer TopCount® Microplate Scintillation Counter. Such assays, carried out with a range of doses of test compounds, allowed the determination of the cellular anti-antiproliferative IC50 of the compounds of the present invention. The following table lists the IC50 values of several cancer cell lines (5% FBS) for certain compounds of the invention.

ATR = ATR (Homo sapiens (Human), UniProt Q13535); test: Enzyme ATR in vitro enzyme assay (ELISA, phospho-Ser15 p53 substrate); format: biochemical; conditions: ATR immunoprecipitated from HeLa nuclear extract; GST-p53N66 substrate; ATP 3 μM; 37° C.
Chain of ATR (Q13535 whole entry, the tested form may be a part): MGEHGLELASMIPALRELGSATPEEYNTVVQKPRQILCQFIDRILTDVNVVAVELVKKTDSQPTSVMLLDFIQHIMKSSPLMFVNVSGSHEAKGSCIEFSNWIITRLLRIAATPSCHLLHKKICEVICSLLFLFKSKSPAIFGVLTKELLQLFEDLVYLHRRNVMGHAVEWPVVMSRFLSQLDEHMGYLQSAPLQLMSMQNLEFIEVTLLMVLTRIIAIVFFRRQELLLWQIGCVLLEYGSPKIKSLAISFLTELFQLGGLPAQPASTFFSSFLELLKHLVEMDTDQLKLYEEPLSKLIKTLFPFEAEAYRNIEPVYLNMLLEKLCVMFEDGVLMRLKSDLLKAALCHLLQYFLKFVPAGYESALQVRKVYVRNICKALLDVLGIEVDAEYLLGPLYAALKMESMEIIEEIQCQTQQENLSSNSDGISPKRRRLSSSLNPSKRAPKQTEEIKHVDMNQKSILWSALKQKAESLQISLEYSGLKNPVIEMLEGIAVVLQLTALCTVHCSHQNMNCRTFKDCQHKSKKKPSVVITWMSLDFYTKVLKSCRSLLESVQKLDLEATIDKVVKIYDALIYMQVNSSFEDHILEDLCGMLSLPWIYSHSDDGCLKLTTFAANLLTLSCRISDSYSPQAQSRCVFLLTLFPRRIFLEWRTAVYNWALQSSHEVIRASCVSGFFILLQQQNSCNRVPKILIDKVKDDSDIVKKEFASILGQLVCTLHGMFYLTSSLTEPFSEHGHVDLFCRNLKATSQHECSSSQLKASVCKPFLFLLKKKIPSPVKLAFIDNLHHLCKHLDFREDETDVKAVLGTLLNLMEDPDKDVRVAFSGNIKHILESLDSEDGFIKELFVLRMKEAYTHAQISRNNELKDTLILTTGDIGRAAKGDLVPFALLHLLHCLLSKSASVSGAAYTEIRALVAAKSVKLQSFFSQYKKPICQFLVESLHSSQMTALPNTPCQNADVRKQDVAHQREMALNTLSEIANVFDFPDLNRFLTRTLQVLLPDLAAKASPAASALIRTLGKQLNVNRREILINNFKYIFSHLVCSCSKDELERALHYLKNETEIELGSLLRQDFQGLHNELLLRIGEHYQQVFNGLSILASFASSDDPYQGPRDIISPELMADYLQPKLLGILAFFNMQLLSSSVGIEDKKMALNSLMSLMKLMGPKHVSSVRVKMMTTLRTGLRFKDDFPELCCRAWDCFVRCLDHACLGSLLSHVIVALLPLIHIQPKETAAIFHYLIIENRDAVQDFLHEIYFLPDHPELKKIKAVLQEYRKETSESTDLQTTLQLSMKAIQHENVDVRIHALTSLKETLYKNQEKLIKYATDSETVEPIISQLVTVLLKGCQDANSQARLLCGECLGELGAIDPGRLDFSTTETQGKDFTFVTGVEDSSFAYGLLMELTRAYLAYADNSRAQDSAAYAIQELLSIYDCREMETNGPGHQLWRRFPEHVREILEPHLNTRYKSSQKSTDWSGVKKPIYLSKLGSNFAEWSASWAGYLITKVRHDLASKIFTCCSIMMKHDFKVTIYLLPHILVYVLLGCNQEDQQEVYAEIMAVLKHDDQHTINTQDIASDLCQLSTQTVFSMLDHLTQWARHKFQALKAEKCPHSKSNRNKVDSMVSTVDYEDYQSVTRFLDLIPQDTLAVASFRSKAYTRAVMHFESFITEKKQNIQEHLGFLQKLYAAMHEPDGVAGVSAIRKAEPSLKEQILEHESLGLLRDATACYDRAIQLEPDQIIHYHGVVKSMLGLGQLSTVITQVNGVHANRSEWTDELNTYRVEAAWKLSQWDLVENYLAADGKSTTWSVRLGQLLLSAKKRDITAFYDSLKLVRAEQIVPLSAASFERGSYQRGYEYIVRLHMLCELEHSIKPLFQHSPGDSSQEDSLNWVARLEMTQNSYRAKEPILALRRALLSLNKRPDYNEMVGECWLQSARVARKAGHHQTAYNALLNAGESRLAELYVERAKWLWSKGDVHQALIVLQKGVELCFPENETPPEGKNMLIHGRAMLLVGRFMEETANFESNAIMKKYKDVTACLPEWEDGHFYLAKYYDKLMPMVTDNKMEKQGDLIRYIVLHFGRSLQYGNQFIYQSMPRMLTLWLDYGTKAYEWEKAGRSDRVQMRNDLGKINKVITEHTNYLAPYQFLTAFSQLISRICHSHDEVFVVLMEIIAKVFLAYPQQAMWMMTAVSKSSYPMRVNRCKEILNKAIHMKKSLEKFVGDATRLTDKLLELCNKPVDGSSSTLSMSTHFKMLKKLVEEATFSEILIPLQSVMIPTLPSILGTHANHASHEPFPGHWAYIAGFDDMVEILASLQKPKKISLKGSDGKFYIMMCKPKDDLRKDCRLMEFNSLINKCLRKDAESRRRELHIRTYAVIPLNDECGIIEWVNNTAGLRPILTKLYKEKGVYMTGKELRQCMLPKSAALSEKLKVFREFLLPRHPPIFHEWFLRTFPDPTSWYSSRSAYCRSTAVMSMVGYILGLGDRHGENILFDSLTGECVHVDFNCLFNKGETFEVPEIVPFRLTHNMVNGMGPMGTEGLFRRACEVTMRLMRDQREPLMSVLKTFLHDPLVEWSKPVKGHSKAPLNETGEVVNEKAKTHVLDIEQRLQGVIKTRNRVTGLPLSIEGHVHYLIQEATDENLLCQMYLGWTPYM
Chain of ATR (Q8WXE1 whole entry partner, the tested form may be a part): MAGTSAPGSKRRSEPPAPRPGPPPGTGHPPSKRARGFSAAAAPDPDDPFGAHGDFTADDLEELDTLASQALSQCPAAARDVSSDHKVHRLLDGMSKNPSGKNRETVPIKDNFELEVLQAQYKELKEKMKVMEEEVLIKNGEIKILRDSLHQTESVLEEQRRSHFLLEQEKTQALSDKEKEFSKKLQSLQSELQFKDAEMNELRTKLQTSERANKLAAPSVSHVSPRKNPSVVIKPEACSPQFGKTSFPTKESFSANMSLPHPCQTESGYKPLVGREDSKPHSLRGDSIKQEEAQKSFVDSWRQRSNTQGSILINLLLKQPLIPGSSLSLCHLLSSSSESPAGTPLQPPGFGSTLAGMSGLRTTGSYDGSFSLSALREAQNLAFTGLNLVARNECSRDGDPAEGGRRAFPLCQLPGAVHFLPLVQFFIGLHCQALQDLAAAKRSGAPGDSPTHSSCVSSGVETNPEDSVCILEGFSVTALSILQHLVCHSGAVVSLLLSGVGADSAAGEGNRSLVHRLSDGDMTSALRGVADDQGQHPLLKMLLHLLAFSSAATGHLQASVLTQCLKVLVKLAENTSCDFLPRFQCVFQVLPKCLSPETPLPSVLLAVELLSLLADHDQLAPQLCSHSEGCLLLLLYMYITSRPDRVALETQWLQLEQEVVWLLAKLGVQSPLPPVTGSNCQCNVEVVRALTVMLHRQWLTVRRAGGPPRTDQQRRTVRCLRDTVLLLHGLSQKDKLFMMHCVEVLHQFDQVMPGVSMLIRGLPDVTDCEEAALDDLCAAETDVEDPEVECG
Protocol: ATR for use in the in vitro enzyme assay was obtained from HeLa nuclear extract (CIL Biotech, Mons, Belgium) by immunoprecipitation with rabbit polyclonal antiserum raised to amino acids 400-480 of ATR (Tibbetts R S et al, 1999, Genes Dev. 13:152-157) contained in the following buffer (25 mM HEPES (pH7.4), 2 mM MgCl2, 250 mM NaCl, 0.5 mM EDTA, 0.1 mM Na3V04, 10% v/v glycerol, and 0.01% v/v Tween 20). ATR-antibody complexes were isolated from nuclear extract by incubating with protein A-Sepharose beads (Sigma, #P3476) for 1 hour and then through centrifugation to recover the beads. In the well of a 96-well plate, […] Sepharose beads were incubated with 1 μg of substrate glutathione S-transferase-p53N66 (NH2-terminal 66 amino acids of p53 fused to glutathione ^-transferase was expressed in E. coli) in ATR assay buffer (50 mM HEPES (pH 7.4), 150 mM NaCl, 6 mM MgCl2, 4 mM MnCl2, 0.1 mM Na3V04, 0.1 mM DTT, and 10% (v/v) glycerol) at 37° C. in the presence or absence of inhibitor. After 10 minutes with gentle shaking, ATP was added to a final concentration of 3 μM and the reaction continued at 37° C. for an additional 1 hour. The reaction was stopped by addition of IOOμí PBS and the reaction was transferred to a white opaque glutathione coated 96-well plate (NUNC #436033) and incubated overnight at 4° C. This plate was then washed with PBS/0.05%>(v/v) Tween 20, blotted dry, and analyzed by a standard ELISA (Enzyme-Linked Immunosorbent Assay) technique with a phospho-serine 15 p53 (16G78) antibody (Cell Signaling Technology, #9286). The detection of phosphorylated glutathione S-transferase-pSSNee substrate was performed in combination with a goat anti-mouse horseradish peroxidase-conjugated secondary antibody (Pierce, #31430). Enhanced chemiluminescence solution (NEN, Boston, Mass.) was used to produce a signal and chemiluminescent detection was carried out via a TopCount (Packard, Meriden, Conn.) plate reader.

Mice PK study = format: in vivo; conditions: CD-1 mouse; oral dosing po, 10 mg/kg; plasma
Protocol: The pharmacokinetics of compounds were evaluated in CD-1 mouse via Intravenous and Oral Administration. The IV dose was administered as a slow bolus in the Jugular vein, and oral doses were administered by gavage. The formulation for IV dosing was 5% DMSO in 20% HPBCD in water, and the PO formulation was 2.5% DMSO, 10% EtOH, 20% Cremphor EL, 67.5% D5W. The PK time point for the IV arm was 5, 15, 30 min, 1, 2, 4, 6, 8, 12, 24 hours post dose, and for PO arm was 15, 30 min, 1, 2, 4, 6, 8, 12, 24 hours post dose. Approximately 0.03 mL blood was collected at each time point. Blood of each sample was transferred into plastic micro centrifuge tubes containing EDTA-K2 and collect plasma within 15 min by centrifugation at 4000 g for 5 minutes in a 4° C. centrifuge. Plasma samples were stored in polypropylene tubes. The samples were stored in a freezer at −75±15° C. prior to analysis. Concentrations of compounds in the plasma samples were analyzed using a LC-MS/MS method. WinNonlin (Phoenix™, version 6.1) or other similar software was used for pharmacokinetic calculations. The following pharmacokinetic parameters were calculated, whenever possible from the plasma concentration versus time data: IV administration: C0, CL, Vd, T1/2, AUCinf, AUClast, MRT, Number of Points for Regression; PO administration: Cmax, Tmax, T1/2, AUCinf, AUClast, F %, Number of Points for Regression. […]

| SMILES | IC50 [1] | IC50 (ATR) | AUC(0-t) (Mice PK study) |
| --- | --- | --- | --- |
| C[C@@H]1COCCN1c1cc(C(C)(O)C(F)(F)F)nc(-c2ccnc3[nH]ccc23)n1 (stereo partly drawn) [CY-257, 1,1,1-trifluoro-2-[6-[(3R)-3-methylmorpholin-4-yl]-2-[1H-pyrrolo[2,3-b]pyridin-4-yl]pyrimidin-4-yl]propan-2-ol] | 830 nM | < 3 nM | – |
| CN=S(C)(=O)C1(c2cc(N3CCOC[C@H]3C)nc(-c3ccnc4[nH]ccc34)n2)CC1 (stereo partly drawn) [CY-200-1, Methyl[methyl(1-[6-[(3R)-3-methylmorpholin-4-yl]-2-[1H-pyrrolo[2,3-b]pyridin-4-yl]pyrimidin-4-yl]cyclopropyl)oxo-lambda-sulfanylidene]amine] | – | < 3 nM | – |
| C[C@@H]1COCCN1c1cc(C(C)(C)C#N)nc(-c2ccnc3[nH]ccc23)n1 [CY-237, 2-methyl-2-[6-[(3R)-3-methylmorpholin-4-yl]-2-[1H-pyrrolo[2,3-b]pyridin-4-yl]pyrimidin-4-yl]propanenitrile] | 480 nM | < 3 nM | 4390 ng·h/mL |
| C[C@@H]1COCCN1c1cc(NCC2CC(F)(F)C2)nc(-c2ccnc3[nH]ccc23)n1 [CY-249, N-[(3,3-difluorocyclobutyl)methyl]-6-[(3R)-3-methylmorpholin-4-yl]-2-[1H-pyrrolo[2,3-b]pyridin-4-yl]pyrimidin-4-amine] | 510 nM | < 3 nM | – |
| C[C@@H]1COCCN1c1cc(C2([S@](C)(=N)=O)CC2)nc(-c2cc[nH]c3nccc2-3)n1 [AZD-6738, reference compound] | 800 nM | – | 3100 ng·h/mL |
| C[C@@H]1COCCN1c1cc(C(C)(C)O)nc(-c2ccnc3[nH]ccc23)n1 [CY-212, 2-[6-[(3R)-3-methylmorpholin-4-yl]-2-[1H-pyrrolo[2,3-b]pyridin-4-yl]pyrimidin-4-yl]propan-2-ol] | – | < 3 nM | – |
| [2H]C([2H])([2H])N=S(C)(=O)C1(c2cc(N3CCOC[C@H]3C)nc(-c3ccnc4[nH]ccc34)n2)CC1 (stereo partly drawn) [CY-209, (2H3)methyl[methyl(1-[6-[(3R)-3-methylmorpholin-4-yl]-2-[1H-pyrrolo[2,3-b]pyridin-4-yl]pyrimidin-4-yl]cyclopropyl)oxo-lambda6-sulfanylidene]amine] | – | < 3 nM | – |
